{"source": "patent US20050101783A1", "about": "“N-(heterocycle-methyl)alkylamine derivative, process for producing the same, and bactericide” (priority 2000, published 2005)", "key": {"Candida albicans": {"system": "Candida albicans", "assay": "Antibacterial test to Candida albicans (96-hole plate, IC80)", "type": "cell-based", "conditions": "cultivated at 35° C. for 72 hours, absorbance at 540 nm", "experimental": "(Antibacterial Test to Candida albicans) In the test examples, a test was performed on the antibacterial of the compounds according to the present invention to Candida albicans in the methods later described. The culture dilution train containing each compound was prepared by using a 96-hole flat-bottomed plate, and the inoculation mold solution controlled at 1 to 5×10^3 cell/ml beforehand of 10 μl was added to each hole on the plate. After the inoculation, the molds were cultivated at 35° C. for 72 hours, and the propagation of the mold was evaluated by measuring the absorbance at 540 nm. With such a test, the propagation of the mold in this case was compared with the propagation of the mold in the chemical-free test area to find the concentration of a compound where the propagation rate of the mold is suppressed by 80% as IC 80 (80% growth inhibition concentration)."}, "Aspergillus fumigatus": {"system": "Aspergillus fumigatus", "assay": "Antibacterial test to Aspergillus fumigatus (96-hole plate, IC80)", "type": "cell-based", "conditions": "YNB culture with 0.22% low melting point-agarose, 1×10^4 cell/ml, 25° C., 72 hours, absorbance at 620 nm", "experimental": "(Antibacterial Test to Aspergillus fumigatus)\nIn the test example, a test was performed on the antibacterial of the compounds according to the present invention to Aspergillus fumigatus in the method later described.\nAspergillus fumigatus was cultivated in Sabouraud's agar at 37° C. for 3 days, after the spores to be used for the test were formed, the spore suspension was prepared. The spore suspension was suspended in YNB culture to which a 0.22% low melting point-agarose was added so as to allow the final concentration to be 1×10^4 cell/ml, and the solution was poured into each hole on a 96-hole flat-bottomed plate. Next, the dilution trains using each of the compounds according to the present invention were added, the solution was cultivated at 25° C. for 72 hours, and the propagation rate of the mold was evaluated by measuring the absorbance at 620 nm. With such a test, the propagation rate of the mold in the chemical-free test area was compared with this case to find the concentration of the compound where the propagation rate of the mold is suppressed by 80% as IC 80 (80% growth inhibition concentration)."}}}
{"compound": "Cn1cc(CNCC(C)(C)Cc2ccc(C(C)(C)C)cc2)cn1", "note": "[Compound I-6]", "values": [{"measurement": "80% Growth Inhibition Concentration (IC80)", "setting": "Candida albicans", "result": 18, "unit": "mg/L"}, {"measurement": "80% Growth Inhibition Concentration (IC80)", "setting": "Aspergillus fumigatus", "result": 9, "unit": "mg/L"}]}
